Source: PubChem BioAssay AID651581 (Sanford-Burnham Center for Chemical Genomics, 2012)
The source made the active and inactive calls. No rule for the calls is given here.

What was measured:
[1] = molecular target: Hypoxia-inducible factor 1-alpha (Homo sapiens) (UniProt Q16665); test: HIF-2a and HIF-1a reporter inhibition panel, dose response, selectivity assay for HIF-2a inhibitor project, cell-based, luminescence (AID 651581); conditions: HIF-1a
[2] = molecular target: Endothelial PAS domain-containing protein 1 (Homo sapiens) (UniProt Q99814); test: as above

Sequence of Hypoxia-inducible factor 1-alpha (Homo sapiens) (Q16665 whole entry, looked up, the tested form may be a part): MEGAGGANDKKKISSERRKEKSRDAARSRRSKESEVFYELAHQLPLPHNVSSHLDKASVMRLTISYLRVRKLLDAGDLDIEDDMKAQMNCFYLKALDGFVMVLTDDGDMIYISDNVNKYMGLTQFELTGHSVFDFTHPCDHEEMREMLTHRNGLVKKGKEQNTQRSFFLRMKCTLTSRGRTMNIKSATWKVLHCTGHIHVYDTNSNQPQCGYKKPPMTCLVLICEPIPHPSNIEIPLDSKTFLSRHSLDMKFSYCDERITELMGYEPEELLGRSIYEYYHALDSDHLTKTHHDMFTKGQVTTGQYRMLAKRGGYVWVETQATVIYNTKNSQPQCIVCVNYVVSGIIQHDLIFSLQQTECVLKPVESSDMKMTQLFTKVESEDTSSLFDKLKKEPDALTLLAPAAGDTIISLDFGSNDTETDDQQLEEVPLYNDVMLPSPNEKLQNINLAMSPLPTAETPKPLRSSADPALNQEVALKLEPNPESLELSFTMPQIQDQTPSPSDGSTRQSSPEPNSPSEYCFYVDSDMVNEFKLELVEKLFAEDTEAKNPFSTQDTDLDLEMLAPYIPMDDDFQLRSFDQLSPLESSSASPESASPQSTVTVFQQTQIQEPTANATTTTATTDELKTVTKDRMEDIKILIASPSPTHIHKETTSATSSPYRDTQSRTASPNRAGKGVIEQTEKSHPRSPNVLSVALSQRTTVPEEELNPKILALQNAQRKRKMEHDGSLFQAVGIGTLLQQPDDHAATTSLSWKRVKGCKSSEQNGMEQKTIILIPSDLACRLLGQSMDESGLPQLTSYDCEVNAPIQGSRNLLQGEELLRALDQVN

SMILES	IC50 ([1]; run 1) [µM]	IC50 ([1]; run 2) [µM]	IC50 ([2]; HIF-2a PANC, mean of runs)	IC50 ([2]; HIF-2a PANC, run 1) [µM]	IC50 ([2]; HIF-2a PANC, run 2) [µM]	IC50 ([2]; HIF-2a, mean of runs)	IC50 ([2]; HIF-2a, run 1) [µM]	IC50 ([2]; HIF-2a, run 2) [µM]	IC50 ([1]; mean of runs)
CC(=O)N/N=C\c1cccc(OC/C=C/c2ccccc2)c1	> 99	> 99	> 99 µM (inactive)	> 99	> 99	< 10 µM	< 10	< 30	
CCOC(=O)c1cccc(NC(=O)Nc2ccc(OCC)cc2)c1	> 99	> 99		< 30	32.7		11.2	< 10	
CC(C)(C)c1ccc(-c2noc(CCC(N)=O)n2)cc1	> 99	> 99	< 0.3 µM	< 1	< 0.3	< 0.3 µM	< 0.3	< 0.3	
Cc1cc(C)cc(C(=O)NC(=S)Nc2ccc(-c3cc4ccccc4oc3=O)cc2)c1	> 99	> 99		> 99	> 99	> 99 µM (inactive)	> 99	> 99	> 99 µM (inactive)
COc1ccc(/C=N\n2nnc3ccccc32)cc1	< 30	< 30	7.03 µM	7.48	6.58	< 30 µM (inactive)	< 30	< 30	< 30 µM (inactive)
CCOc1ccc(C(=O)Nc2nnc(SCC(=O)NCC3CCCO3)s2)cc1 (stereo not given)	> 99	> 99	46.9 µM	21	72.7	< 30 µM (inactive)	< 30	< 30	
CCN(CC)CCCC(C)n1c2nc(=O)[nH]c(=O)c-2nc2cc(Cl)ccc21 (stereo not given)	18.1	15.8	3.53 µM	2.56	4.5	9.02 µM	8.43	9.61	inactive
CCOC(=O)CNC(=O)CSc1nnc(NC(=O)c2ccc(C)cc2)s1	> 99	> 99	inactive	63.2	25.5	9.66 µM	11.8	7.56	
Cc1ccc(C(C)C)c(OCc2ccc(C(=O)N/N=C/c3ccc(C(=O)O)cc3)cc2)c1	> 99	> 99	0.378 µM	0.507	0.248	0.45 µM	0.421	0.479	
CC(=O)Nc1ccc(OS(=O)(=O)c2ccc(C)cc2C)cc1	28.2	21.6	7.66 µM	5.49	9.84	3.79 µM	3.7	3.87	24.9 µM
CCOc1ccc(OCc2cccc(C(=O)N/N=C/c3cccnc3)c2)cc1	> 99	> 99	inactive	16.7	12	2.03 µM	2.13	1.94	
Cc1ccc(S(=O)(=O)Nc2cccc3cccnc23)c([N+](=O)[O-])c1	> 99	> 99	> 99 µM (inactive)	> 99	> 99	3.76 µM	3.87	3.66	
CCN(CC)S(=O)(=O)c1ccc(NC(=O)c2cccnc2Cl)c(NC(=O)c2cccnc2Cl)c1	8.13	16.9	9.99 µM	12.9	7.07	10 µM	9.42	10.6	inactive
Cc1c(CCC(=O)O)c(=O)oc2cc3oc4c(c3cc12)CCCC4	1.15	1.08	0.708 µM	0.793	0.623	0.276 µM	0.267	0.286	1.12 µM
CC(=O)Nc1ccc(Oc2sc(C(=O)c3ccccc3)c(N)c2C#N)cc1	27.7	28.5	inactive	47.2	65.4	inactive	17.5	10.9	inactive
O=C(O)c1cccc(COc2ccccc2Cl)c1	17.8	24.6		21.1	> 99	2.58 µM	2.52	2.65	21.2 µM
COC(=O)COc1ccc(-c2nccc(-c3ccc(Br)cc3)n2)cc1	> 99	> 99		6.31	> 99	7.51 µM	7.55	7.47	
CCS(=O)(=O)c1ncc(Cl)c(C(=O)Nc2ccc(C)cc2)n1	23.9	20	30.5 µM	30.4	30.7	inactive	10.8	9.79	inactive
CC(=O)Nc1ccc(NC(=O)c2ccc(-c3ccnn3C)c3ccoc23)cc1	3.89	> 99	1.85 µM	2.03	1.67	0.858 µM	0.938	0.777	
COc1cc(/C=C/[N+](=O)[O-])ccc1O	25.2	28.3	> 99 µM (inactive)	> 99	> 99	inactive	11.7	10.3	inactive
